# Source: article PMC9235892 (Virulence, 2022)
# Where “and” joins values, the source holds several entries; their conditions need not be identical. Identical values can stand only once. Like-named read-outs stand apart in the source and are kept apart here.
# What was measured:
# [1] = system: intracellular cholesterol traffic; format: cell-based, African green monkeys
# SARS-CoV-2 [2] = format: cell-based
# SARS-CoV-2 [3] = assay: microbe, parasite or virus in culture; format: cell-based; details: for EC50: Severe acute respiratory syndrome coronavirus 2, 60 h, read-out: half maximal effective concentration (EC50), 50% CPE inhibition
# SARS-CoV-2 [4] = format: cell-based; remark: listed apart in the source
# HuH7.5 = assay: MTT assay in HuH7.5; format: cell-based, human; details: HuH7.5, 10 µM and 32 µM
# SARS-CoV-2 [5] = details: in vivo
# Caco-2 = assay: MTT assay in Caco-2; format: cell-based, human; details: Caco-2, 10 µM and 32 µM
# SARS-CoV-2 [6] = format: cell-based; remark: listed apart in the source
# [7] = Potential toxicity of LNB167 in mice; format: in vivo, FVB male mice; details: oral gavage
# Procedure: Adult FVB male mice bred and maintained at the Animal Facility of LOM at LNBio/CNPEM were weighed and divided into three groups (n = 5): vehicle (5% ethanol, 45% PEG400, 5% TWEEN®80, 45% saline), LNB167 60 mg/kg, and LNB167 300 mg/kg. Mice received one dose daily for 6 days by oral gavage. Animals were weighed and monitored daily for signs of potential compound toxicity including loss of movement, ruffled fur, ear position, eye shape, and death.
# SARS-CoV-2 [8] = format: cell-based; remark: listed apart in the source
# SARS-CoV-2 B.1 = format: cell-based
# Calu-3 = assay: MTT assay in Calu-3; format: cell-based, human; details: Calu-3, 10 µM and 32 µM
# HEK293T = assay: MTT assay in HEK293T; format: cell-based, human; details: 10 µM and 32 µM
# SARS-CoV-2 [9] = system: SARS-CoV-2
# HEK293T cells = format: cell-based, human
# SARS-CoV-2 [10] = format: cell-based; remark: listed apart in the source
# Pharmacokinetics in mice = format: in vivo, CD1 mice
# Procedure: In vivo pharmacokinetics assessment of LNB167 was performed at the Center of Innovation and Preclinical Studies (CIEnP, Brazil) under contract. LNB167 was tested in adult male CD1 mice (n = 5) bred under Specific Pathogen Free conditions at doses of 60 mg/kg (p.o.) or 6 mg/kg (I.V.). Results were reported according to ARRIVE (Animal Research Reporting In Vivo Experiments) [[22–24]]. The pharmacokinetics parameters were determined using the software Phoenix® WinNonlin® (version 7.0).
# SARS-CoV-2 [11] = format: cell-based; remark: listed apart in the source
smiles,measurement,setting,value
"CCN(CC)CCO[C@H]1CC[C@@]2(C)C(=CC[C@@H]3[C@@H]2CC[C@]2(C)C(=O)CC[C@@H]32)C1.Cl [U18666A, reference compound]","cholesterol distribution, filipin III staining",[1],formation of puncta inside cells
C[C@]12CC[C@H](OCCS(=O)(=O)N3CCOCC3)CC1CCC1C2CC[C@]2(C)C(=O)CCC12 (some centres unmarked) [FFNBio41],effect on viral load assessed by plaque assay,SARS-CoV-2 [2],no effect
same,EC50,SARS-CoV-2 [3],5 µM
same,"toxicity, MTT assay",Vero CCL81 cells,not cytotoxic
"CCN(CC)CCCC(C)Nc1ccnc2cc(Cl)ccc12 (centres unmarked) [Chloroquine, reference compound]",EC50,SARS-CoV-2 [3],5.9 µM
"C[C@]12CC[C@H](O)C[C@@H]1CC[C@@H]1[C@@H]2CC[C@]2(C)C(=O)CC[C@@H]12 [Epiandrosterone, reference compound]",cytoprotective activity against SARS-CoV-2,SARS-CoV-2 [3],did not display cytoprotective activity
C[C@]12CC[C@H](OC[C@H](O)CN3CCOCC3)CC1CCC1C2CC[C@]2(C)C(=O)CCC12 (some centres unmarked) [LNB168],"half maximal effective concentration (EC50), 50% CPE inhibition",SARS-CoV-2 [3],mid micromolar range
"C[C@]12CC[C@H](O)CC1CCC1C2CC[C@]2(C)C(=O)[C@H](Br)CC12 (some centres unmarked) [16a-bromoepiandrosterone, reference compound]",cytoprotective activity against SARS-CoV-2,SARS-CoV-2 [3],did not display cytoprotective activity
CN1CCN(CC(=O)O[C@H]2CC[C@@]3(C)C(CCC4C3CC[C@]3(C)C(=O)CCC43)C2)CC1 (some centres unmarked) [FFNBio42],fold reduction in infectious virus (plaque assay) vs vehicle-treated control,SARS-CoV-2 [2],10 fold
same,fold reduction in viral RNA levels (RT-qPCR) vs vehicle-treated control,SARS-CoV-2 [4],10 fold
same,EC50,SARS-CoV-2 [3],4.7 µM
same,"toxicity, MTT assay",Vero CCL81 cells,not cytotoxic
C[C@]12CC[C@H](OC(=O)CN3CCOCC3)CC1CCC1C2CC[C@]2(C)C(=O)CCC12 (some centres unmarked) [LNB149],"half maximal effective concentration (EC50), 50% CPE inhibition",SARS-CoV-2 [3],mid micromolar range
C[C@]12CC[C@H](OC[C@@H](O)CN3CCOCC3)CC1CCC1C2CC[C@]2(C)C(=O)CCC12 (some centres unmarked) [LNB166],"half maximal effective concentration (EC50), 50% CPE inhibition",SARS-CoV-2 [3],mid micromolar range
CN1CCN(CCC(=O)O[C@H]2CC[C@@]3(C)C(CCC4C3CC[C@]3(C)C(=O)CCC43)C2)CC1 (some centres unmarked) [LNB171],effect on viral load assessed by plaque assay,SARS-CoV-2 [2],no effect
same,effect on viral load assessed by RT-qPCR,SARS-CoV-2 [4],no effect
same,"half maximal effective concentration (EC50), 50% CPE inhibition",SARS-CoV-2 [3],mid micromolar range
same,"toxicity, MTT assay",Vero CCL81 cells,not cytotoxic
CN1CCN(C[C@H](O)CO[C@H]2CC[C@@]3(C)C(CCC4C3CC[C@]3(C)C(=O)CCC43)C2)CC1 (some centres unmarked) [LNB167],"toxicity, MTT assay",HuH7.5,not toxic
same,effect on viral load assessed by plaque assay,SARS-CoV-2 [2],potent inhibition of SARS-CoV-2 replication
same,fold reduction in infectious virus (plaque assay) vs vehicle-treated control,SARS-CoV-2 [2],1000 fold
same,viral load recovered from infected mouse lungs (plaque assay or RT-qPCR),SARS-CoV-2 [5],did not reduce the viral load
same,histological analysis of lung sections,SARS-CoV-2 [5]; mouse,alterations in tissue architecture that were more pronounced in the context of SARS-CoV-2 infection
same,protection from disease development induced by SARS-CoV-2,SARS-CoV-2 [5]; mouse,did not protect from disease development
same,average weight loss,"SARS-CoV-2 [5]; mouse, 120 mg/kg",15%
same,"toxicity, MTT assay",Caco-2,not toxic
same,effect on levels of viral RNA (RT-qPCR),SARS-CoV-2 [6],did not reduce levels of viral RNA
same,fold reduction in viral RNA levels (RT-qPCR) vs vehicle-treated control,SARS-CoV-2 [4],~100 fold
same,"cholesterol distribution, filipin III staining",[1],formation of puncta that were identical to those observed in U18666A-treated cells
same,signs of toxicity,[7]; 60 mg/Kg once a day for 6 days,No signs of toxicity
same,signs of toxicity,[7]; 300 mg/Kg once a day for 6 days,moderate weight loss and ruffled fur
same,effect on SARS-CoV-2 viral load,SARS-CoV-2 [8],no effect
same,EC50,SARS-CoV-2 [3],0.9 µM
same,"fold reduction in infectious viral progeny (plaque assay), time of addition",SARS-CoV-2 B.1,up to 100 fold
same,"fold reduction in viral load (RT-qPCR), time of addition",SARS-CoV-2 B.1,approximately 10 fold
same,time of addition after infection giving maximum antiviral activity,SARS-CoV-2 B.1,≤ 8 h
same,"toxicity, MTT assay",Calu-3,not toxic
same,"toxicity, MTT assay","Vero CCL81 cells; 10 µM and 32 µM, Vero CCL81",not cytotoxic
same,"toxicity, MTT assay",HEK293T,not toxic
same,virucidal activity against SARS-CoV-2,SARS-CoV-2 [9],neither LNB167 nor LNB169 were virucidal
same,"up-regulated pathways (RNASeq), SARS-CoV-2-infected cells",HEK293T cells,upregulation of multiple pathways involving metabolism and biosynthesis of both membrane lipids and cholesterol
same,"up-regulated pathways (RNASeq), non-infected cells",HEK293T cells,upregulation of membrane lipids and cholesterol metabolic and biosynthetic pathways
same,effect on SARS-CoV-2 viral load,SARS-CoV-2 [10],no effect
same,bioavailability,"Pharmacokinetics in mice; male, CD1, mouse, plasma, oral, 60 mg/kg p.o. (6 mg/kg I.V.)",66.3%
same,half-life,"Pharmacokinetics in mice; male, CD1, mouse, plasma, po, single dose of 60 mg/kg given orally",2.67 h
same,volume of distribution,Pharmacokinetics in mice; single dose of 60 mg/kg given orally,63.17 L/kg
same,maximum plasma concentration,"Pharmacokinetics in mice; single dose of 60 mg/kg given orally, 60 mg/kg",498.69 ng/ml and 1.1 µM
same,"fold reduction in viral load (RT-qPCR, viral RNA)",SARS-CoV-2 [11],≤ 1000 fold
CN1CCN(C[C@@H](O)CO[C@H]2CC[C@@]3(C)C(CCC4C3CC[C@]3(C)C(=O)CCC43)C2)CC1 (some centres unmarked) [LNB169],"toxicity, MTT assay",HuH7.5,not toxic
same,effect on viral load assessed by plaque assay,SARS-CoV-2 [2],potent inhibition of SARS-CoV-2 replication
same,fold reduction in infectious virus (plaque assay) vs vehicle-treated control,SARS-CoV-2 [2],1000 fold
same,"toxicity, MTT assay",Caco-2,not toxic
same,effect on levels of viral RNA (RT-qPCR),SARS-CoV-2 [6],did not reduce levels of viral RNA
same,fold reduction in viral RNA levels (RT-qPCR) vs vehicle-treated control,SARS-CoV-2 [4],~100 fold
same,effect on SARS-CoV-2 viral load,SARS-CoV-2 [8],no effect
same,EC50,SARS-CoV-2 [3],3.8 µM
same,"fold reduction in infectious viral progeny (plaque assay), time of addition",SARS-CoV-2 B.1,up to 100 fold
same,"fold reduction in viral load (RT-qPCR), time of addition",SARS-CoV-2 B.1,approximately 10 fold
same,time of addition after infection giving maximum antiviral activity,SARS-CoV-2 B.1,≤ 8 h
same,"toxicity, MTT assay",Calu-3,not toxic
same,"toxicity, MTT assay","Vero CCL81 cells; 10 µM and 32 µM, Vero CCL81",not cytotoxic
same,"toxicity, MTT assay",HEK293T,not toxic
same,virucidal activity against SARS-CoV-2,SARS-CoV-2 [9],neither LNB167 nor LNB169 were virucidal
same,effect on SARS-CoV-2 viral load,SARS-CoV-2 [10],no effect
same,"fold reduction in viral load (RT-qPCR, viral RNA)",SARS-CoV-2 [11],approximately 100 fold
